Values of other authors as cited in paper PMC4780677 (Annual reports in medicinal chemistry, 2012).

Tested on: mGlu5 receptor
Conditions: cell lines; mGlu5 receptor ago-PAM vs pure PAM

For `O=C(c1ccc(C#Cc2cccc(F)c2)nc1)N1CCC(O)CC1` [VU0361747], the intrinsic agonist activity is listed as “devoid of intrinsic agonist activity”.
In the case of `O=C(NC1CCC1)c1ccc(C#Cc2cccc(F)c2)nc1` [VU0360172], the intrinsic agonist activity is given as “maximal intrinsic agonist activity”.
